Results as given in publication PMC12057357, “Population pharmacokinetics study on nebulized and intravenous administration of polymyxin B in patients with pneumonia caused by multidrug-resistant gram-negative bacteria” (Antimicrobial Agents and Chemotherapy, 2025).
Bridge positions count the residues as written; N and C are the ends. Square brackets hold non-standard residues; d marks the D form. Peptide text beside a SMILES is read from it. * marks the point of attachment. X1 = CC[C@H](C)CCCCC(=O)*; Dab = NCC[C@H](N)C(=O)O

Assays:
Pseudomonas aeruginosa = tested on: Pseudomonas aeruginosa; set-up: method as in PMID 28031207; conditions: ELF; cited from earlier work
[1] = tested on: extensively drug-resistant GNB; conditions: cited from earlier work
Method: While an IV loading dose enhances early plasma exposure of PMB, it has minimal impact on early ELF exposure. […] Currently, the dosing regimen for PMB nebulization in clinical practice is predominantly empirical, typically involving doses of 25 or 50 mg administered twice daily ([19][–][21]). In a PK analysis of 105 patients ...

[2] = Population pharmacokinetic model of PMB in plasma and ELF of patients with MDR-GNB pneumonia; type: in vivo, human
Method: This was a single-center, prospective study conducted between January 2022 and October 2024 at Fujian Medical University Union Hospital. […] Patients with severe bronchoconstriction, refractory hypoxemia, pregnancy, or those undergoing continuous renal replacement therapy were excluded.
IV PMB was administered according to the manufacturer’s instructions: a loading dose of 100–150 mg ([…]) followed by maintenance doses of 40–75 mg every 12 h, with an infusion time of approximately 1 h. The decision to administer PMB and its dosing regimen was made by the medical team. Concurrently, selected patients received nebulized PMB at a dose of 25 mg dissolved in 5 mL of half-normal sterile water for injection every 12 h via vibration mesh nebulizer or jet nebulizer over 15 min. Eligible patients received nebulized PMB for 3 days for the treatment of pneumonia. During nebulization, ventilation was performed at a constant flow, targeting an inspiration-to-expiration ratio of 0.5. The respiratory rate was set at 18 breaths/min; the tidal volume was set at 8 mL/kg; and the positive end-expiratory pressure was set at 6 cmH2O.
For all patients, when the PMB concentration in the plasma and lungs reached a steady state (after at least four doses), one to six samples were collected into EDTA tubes at the following time points: 0 h before administration and 1, 2, 4, 6, 8, and 12 h after administration. The plasma and bronchoalveolar lavage (BAL) fluid samples for drug assays were centrifuged at 12,000 rpm for 5 min. The supernatant was then collected and stored at −80°C until analysis.
ELF is obtained through BAL. This procedure involves inserting and wedging a fiberoptic bronchoscope into a subsegment of the middle or lower lung lobe. Before performing BAL, the patient’s CT scan is reviewed to select the affected lung segment for lavage. The lavage is performed at the same location using a 0.9% saline solution. The aspirate from the first lavage is usually collected separately and discarded due to potential severe contamination with cells from the proximal airway. Subsequent recovered aspirates are combined, and their volume is measured and recorded. The remaining volume of BAL fluid is immediately centrifuged to separate the supernatant and the cell pellet. Samples used for measuring urea and drug concentrations in the supernatant are collected and frozen until analysis. The concentration of PMB in ELF can be determined using urea as an endogenous biomarker ([4], [8]). Urea concentration in plasma and ELF is typically the same because urea is […], has a low molecular weight, and can rapidly diffuse to establish equilibrium across the capillary-alveolar membrane. By measuring the urea concentration in both BAL fluid and plasma, the dilution factor can be determined, allowing for the calculation of the actual drug concentration in ELF (Eq.1):
(1) CELF,PMB=CBAL, PMB×Cplasma,urea /CBAL,urea.
As polymyxin B1 and B2 structures, molecular weights, pharmacological activities, and PK properties were […], their plasma concentrations were summed to obtain total PMB concentrations ([24]). Concentrations of PMB were determined by a validated liquid chromatography–tandem mass spectrometry assay with minor modifications ([25]). […] For plasma, intra- and interday accuracies ranged from 80.6% to 114.9%, with a coefficient of variation (CV) of 2.6%–14.8%. For BAL fluid, accuracy ranged from 82.3% to 114.3%, with a CV of 3.4%–13.7%. All sample concentrations exceeded the lower limit of quantification (LLOQ).
PopPK analyses were conducted using a non-linear mixed-effect modeling program, NONMEM, version 7.5 (Icon Development Solutions, USA). Model development utilized first-order conditional estimation to assess the interaction between patient variability and residual variability. One- or two-compartment structural models were evaluated for both ELF and plasma drug exposure to establish the basic model that best fitted the original data. […]

[3] = tested on: Acinetobacter baumannii (ATCC 19606, 248–01-C.248, and N-16870.213); conditions: cited from earlier work
[4] = plasma; cited from earlier work
From the text: (§1) Monte Carlo simulations were used to determine the probability of target attainment (PTA), aiding in the selection of the optimal dosage regimen. According to consensus guidelines, the fAUC/MIC is the most relevant PK/PD index associated with bacterial killing ([11]). In this study, we evaluated the PTA of fAUC/MIC across different dosage regimens in cases of pathogenic infection with varying MIC values to better understand the optimal treatment approach. The preclinical data on PMB are limited, and its in vitro activities are similar to those of colistin ([11], [27]). Consequently, some data ...

[5] = cited from earlier work
From the text: The issue of dosage adjustments based on renal function has been a contentious topic ...

[6] = tested on: human alveolar epithelial A549 cells; set-up: method as in PMID 34228550, PMID 28416543; conditions: cited from earlier work
[7] = tested on: Pseudomonas aeruginosa (ATCC 27853, PAO1, and FADDI-PA022); conditions: cited from earlier work
From the text: as §1, with “[…] Such high fAUC/MIC” for “Consequently, some data”

[8] = bootstrap median, 1,000 resampled data sets

Molecule: colistin
- fAUCELF/MIC targets (Pseudomonas aeruginosa): 684–1,050

Molecule: CC[C@H](C)CCCCC(=O)N[C@@H](CCN)C(=O)N[C@H](C(=O)N[C@@H](CCN)C(=O)N[C@H]1CCNC(=O)[C@H]([C@@H](C)O)NC(=O)[C@H](CCN)NC(=O)[C@H](CCN)NC(=O)[C@H](CC(C)C)NC(=O)[C@@H](Cc2ccccc2)NC(=O)[C@H](CCN)NC1=O)[C@@H](C)O [PMB, Polymyxin B] (X1-[Dab]T[Dab][Dab][Dab][dF]L[Dab][Dab]T; lactam 4-C)
- bacterial clearance time, inhalation group vs IV group ([1]; P = 0.002): significantly shorter
- risk of acute kidney injury, inhalation group vs IV group ([1]; P = 0.025): trend toward a reduced risk
- AGE on V3 (covariate effect) [2, 8]: 1.28
- ALB on CL3 (covariate effect) [2, 8]: −0.894
- CL1, central compartment clearance of plasma [2, 8]: 1.39 L/h
- CL2, intercompartmental clearance of plasma [2, 8]: 13.1 L/h
- CL3, central compartment clearance of ELF [2, 8]: 0.186 L/h
- CL4, intercompartmental clearance of ELF [2, 8]: 3.44 L/h
- F, bioavailability of nebulization [2, 8]: 0.556
- Q, intercompartmental clearance between compartments 1 and 3 [2, 8]: 0.03 L/h
- V1, central compartment distribution volume of plasma [2, 8]: 27.59 L
- V2, intercompartmental (peripheral) distribution volume of plasma [2, 8]: 17.11 L
- V3, central compartment distribution volume of ELF [2, 8]: 0.896 L
- V4, intercompartmental (peripheral) distribution volume of ELF [2, 8]: 4.33 L
- AUC24h, ELF ([2]; epithelial lining fluid, 76 patients, median (interquartile range), nebulized PMB 25 mg q12h alone or with IV PMB, LC-MS/MS, urea-corrected BAL): 52.5 (35.3–102.8) mg·h/L
- AGE on V3 (covariate effect) ([2]; final PopPK model estimate): 1.28
- ALB on CL3 (covariate effect) ([2]; final PopPK model estimate): −0.893
- CL2, intercompartmental clearance of plasma ([2]; final PopPK model estimate): 13.11 L/h
- CL3, central compartment clearance of ELF ([2]; final PopPK model estimate): 0.186 L/h
- CL4, intercompartmental clearance of ELF ([2]; final PopPK model estimate): 3.44 L/h
- F, bioavailability of nebulization (fraction of drug reaching the lungs) ([2]; final PopPK model estimate): 0.557
- Q, intercompartmental clearance between compartments 1 and 3 (plasma and ELF) ([2]; final PopPK model estimate): 0.03 L/h
- V1, central compartment distribution volume of plasma ([2]; final PopPK model estimate): 27.6 L
- V2, intercompartmental (peripheral) distribution volume of plasma ([2]; final PopPK model estimate): 17.1 L
- V3, central compartment distribution volume of ELF ([2]; final PopPK model estimate): 0.896 L
- V4, intercompartmental (peripheral) distribution volume of ELF ([2]; final PopPK model estimate): 4.35 L
- clearance ([2]; human, plasma, final PopPK model estimate, NONMEM, 76 patients, steady state, read-out: CL1, central compartment clearance of plasma (converted)): 23.2 mL/min
- AUC24h, plasma ([2]; plasma, median (interquartile range), nebulized PMB alone or with IV PMB, LC-MS/MS): 35.0 (22.0–54.2) mg·h/L
- AUC/MIC targets in ELF associated with antibacterial activity [3]: 326 to 989
- unbound fraction [4]: 0.42
- average urine recovery rate [5]: 23.56%
- CL1 ([5]; range across previous PMB two-compartment models): 1.19 to 2.63 L/h
- CL2 ([5]; range across previous studies): 1.98 to 13.83 L/h
- V1 ([5]; range across previous studies): 6.35 to 33.77 L
- V2 ([5]; range across previous studies): 7.92 to 78.2 L
- urinary recovery rate ([5]; range, ref 39 (Sandri et al.)): 0.98% to 17.4%
- effect on human alveolar epithelial A549 cells [6]: disrupt redox balance, mitochondrial beta-oxidation, and membrane lipid biosynthesis
- AUC/MIC targets in ELF associated with antibacterial activity [7]: 1,326 to 1,506
